# According to publication PMC4645630 (The Journal of Biological Chemistry, 2015):
# Experiments:
# [1] = target: T1, GCGR with RAMP2 (Homo sapiens, UniProt O60895+P47871); assay: Whole cell competition binding with [125I]glucagon, GCGR with RAMP2; details: whole cells, [125I]glucagon 0.1 nM, 16 h at 4 °C
# T1 construct: expressed in transfected cells; host or cells: HEK-293 (293T)
# [2] = target: T2, GCGR (Homo sapiens, UniProt P47871); assay: cAMP accumulation assay, HEK-293 cells expressing GCGR with vector control; format: cell-based; set-up: expressed in transfected cells; host or cells: HEK-293 (293T)
# T2 sequence (P47871 26-477): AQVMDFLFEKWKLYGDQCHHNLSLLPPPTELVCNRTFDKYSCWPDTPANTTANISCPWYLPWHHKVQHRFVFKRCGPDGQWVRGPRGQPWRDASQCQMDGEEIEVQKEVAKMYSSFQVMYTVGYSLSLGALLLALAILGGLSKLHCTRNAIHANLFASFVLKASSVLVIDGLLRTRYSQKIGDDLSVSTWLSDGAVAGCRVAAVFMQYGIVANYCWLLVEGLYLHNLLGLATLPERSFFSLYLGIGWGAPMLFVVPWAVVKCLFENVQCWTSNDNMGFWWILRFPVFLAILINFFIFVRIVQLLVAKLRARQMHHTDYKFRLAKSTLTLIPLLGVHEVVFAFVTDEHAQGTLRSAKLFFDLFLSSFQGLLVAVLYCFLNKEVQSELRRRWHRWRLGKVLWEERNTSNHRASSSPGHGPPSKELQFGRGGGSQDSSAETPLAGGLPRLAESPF
# Description: (§1) Data were analyzed using Prism version 6.0e (GraphPad Software, San Diego, CA). EC50 and Emax values were obtained through fitting of a three-parameter logistic equation. Relative efficacy (log τ) and equilibrium dissociation constants (log KA) were generated through use of an operational model for partial agonism ([23]). […] Statistical differences were analyzed before data were normalized, using a Student's test or one-way analysis of variance (ANOVA) with Bonferroni's or Dunnett's multiple comparisons as appropriate, and p < 0.05 was considered significant.
# [3] = target: T1, GCGR with RAMP2; assay: Yeast growth reporter assay, GPA1/Gαi chimera strain expressing GCGR and RAMP2; format: cell-based; details: Table 5, yeast GPA1/Gαi
# Description: (§2) General yeast procedures were performed as described previously ([17], [18]). […] Mammalian GPCRs and RAMPs were introduced to the yeast strains under the control of the GAPDH promoter using plasmids containing either ura3 (p426-GPD) or leu2 (p425-GPD). Plasmids were transformed in a 1:1 ratio to enable equal expression levels of both the RAMP and receptors. Transformation was achieved using the lithium acetate/single-stranded DNA/polyethylene glycol method as described previously ([20]). Positive transformants were selected and maintained on medium lacking uracil and leucine. Receptor signaling was measured using the yeast growth assay ([21]) adapted as described previously ([17]). Initially, cell growth was performed in SD−URA−LEU medium at 30 °C to select for only those cells expressing both plasmids. Cells were then cultured to remove basal activity in SD−URA−LEU−HIS medium overnight at 30 °C and assayed using fluorescein-di-β-D-glucopyranoside-supplemented medium in the presence of different concentrations of ligand (0.01 nM to 100 mM). Fluorescence was measured on a TECAN Infinite M200 microplate reader (TECAN Ultra Evolution, Reading, UK).
# as §1
# [4] = target: T1, GCGR with RAMP2; assay: cAMP accumulation assay, HEK-293 cells co-expressing GCGR and RAMP2; format: cell-based; details: Table 3, cAMP
# Description: as §1
# [5] = target: T2, GCGR; assay: Yeast growth reporter assay, GPA1/Gαs chimera strain expressing GCGR with vector; format: cell-based; set-up: expressed in transfected cells; host or cells: HEK-293 (293T)
# Description: as §2, with “Cells were then cultured to remove basal activity in SD−URA−LEU−HIS medium overnight at 30 °C and assayed using fluorescein-di-β-D-glucopyranoside-supplemented medium in the presence of different concentrations of ligand (0.01 nM to 100 mM).” left out
# (§3) Data were analyzed using Prism version 6.0e (GraphPad Software, San Diego, CA). […] Statistical differences were analyzed before data were normalized, using a Student's test or one-way analysis of variance (ANOVA) with Bonferroni's or Dunnett's multiple comparisons as appropriate, and p < 0.05 was considered significant.
# [6] = target: T2, GCGR; assay: Yeast growth reporter assay, GPA1/Gαi chimera strain expressing GCGR with vector; format: cell-based; set-up: expressed in transfected cells; host or cells: HEK-293 (293T)
# Description: as §2, with “Cells were then cultured to remove basal activity in SD−URA−LEU−HIS medium overnight at 30 °C and assayed using fluorescein-di-β-D-glucopyranoside-supplemented medium in the presence of different concentrations of ligand (0.01 nM to 100 mM).” left out
# as §3
# [7] = target: T2, GCGR; assay: Whole cell competition binding with [125I]glucagon, GCGR without RAMP2; set-up: expressed in transfected cells; details: no RAMP2
# Description: Cells were seeded into 6-well plates and grown to 80% confluence before transfection with 1.5 μg of plasmid DNA and incubated for a further 24 h. Medium was then replaced with fresh DMEM, and cells were transferred onto a 96-well plate coated with poly-D-lysine and incubated for 24 h to achieve confluence prior to assay. […] For the assay, cells were washed in assay buffer, 0.1 nM of radioligand and various concentrations of the peptides were added, and the plate was incubated for 16 h at 4 °C. Following washing with ice-cold assay buffer, 100 μl of NaOH (0.1 M) was added to each well, and the plate was incubated for 5 min on ice. Cells were removed, and the plate was washed with 100 μl of HCl (0.1 M). Radioactivity was determined in 2 ml of Safefluor scintillant (PerkinElmer Life Sciences) using a liquid scintillation counter with a count time of 3 min/sample. Values were corrected for nonspecific binding as determined by the amount of radioligand detected bound to cells not expressing GCGR.
# [8] = target: T1, GCGR with RAMP2; assay: Yeast growth reporter assay, GPA1/Gαs chimera strain expressing GCGR and RAMP2; format: cell-based; details: Table 4, yeast GPA1/Gαs
# Description: as §2, §1
# [9] = GCGR + RAMP2, mean ± S.E., five repeats
# [10] = RAMP2, operational model relative to glucagon
# [11] = RAMP2, percentage of glucagon response without RAMP co-expression
# T1 sequence (P47871 26-477): as above
# T1 sequence (O60895 43-175 partner): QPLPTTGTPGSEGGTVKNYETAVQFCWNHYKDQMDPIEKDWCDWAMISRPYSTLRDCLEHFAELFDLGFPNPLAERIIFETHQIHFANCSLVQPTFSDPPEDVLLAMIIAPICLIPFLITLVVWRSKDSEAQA
compound,measurement,setting,value
CCCCCCCCCCCCCCCC(=O)N[C@@H](CCC(=O)NCCCC[C@H](NC(=O)[C@H](C)NC(=O)[C@H](C)NC(=O)[C@H](CCC(N)=O)NC(=O)CNC(=O)[C@H](CCC(=O)O)NC(=O)[C@H](CC(C)C)NC(=O)[C@H](Cc1ccc(O)cc1)NC(=O)[C@H](CO)NC(=O)[C@H](CO)NC(=O)[C@@H](NC(=O)[C@H](CC(=O)O)NC(=O)[C@H](CO)NC(=O)[C@@H](NC(=O)[C@H](Cc1ccccc1)NC(=O)[C@@H](NC(=O)CNC(=O)[C@H](CCC(=O)O)NC(=O)[C@H](C)NC(=O)[C@@H](N)Cc1c[nH]cn1)[C@@H](C)O)[C@@H](C)O)C(C)C)C(=O)N[C@@H](CCC(=O)O)C(=O)N[C@@H](Cc1ccccc1)C(=O)N[C@H](C(=O)N[C@@H](C)C(=O)N[C@@H](Cc1c[nH]c2ccccc12)C(=O)N[C@@H](CC(C)C)C(=O)N[C@H](C(=O)N[C@@H](CCCNC(=N)N)C(=O)NCC(=O)N[C@@H](CCCNC(=N)N)C(=O)NCC(=O)O)C(C)C)[C@@H](C)CC)C(=O)O [Liraglutide],binding to the GCGR upon RAMP2 co-transfection,[1],failed to bind
same,EC50,"[2]; Table 3, cAMP, HEK-293, GCGR + vector, mean ± S.E., five repeats, SEM",10 nM
same,pEC50,[3]; [9],N.R
same,log τ,[3]; [10],N.R
same,pKA,[3]; [10],N.R
same,Emax,[3]; [11],N.R
same,log τ,"[4]; GCGR + RAMP2, coupling efficiency, operational model relative to glucagon",N.R
same,pKA,"[4]; GCGR + RAMP2, operational model for partial agonism relative to glucagon",N.R
same,Emax,"[4]; GCGR + RAMP2, percentage of glucagon response without RAMP co-transfection",N.R
same,pEC50,"[4]; HEK-293, GCGR + RAMP2, mean ± S.E., five repeats",N.R
same,Emax,[5],80.1 ± 7.5%
same,EC50,"[5]; Table 4, yeast GPA1/Gαs, GCGR + vector, mean ± S.E., five repeats, SEM",3160 nM
same,Emax,[6],84 ± 9.4%
same,EC50,"[6]; Table 5, yeast GPA1/Gαi, GCGR + vector, mean ± S.E., five repeats, SEM",20 nM
same,affinity for the GCGR relative to the native peptide (glucagon),[7]; whole cell competition binding,higher affinity
same,binding to the GCGR in competition with glucagon,"[7]; whole cells, [125I]glucagon 0.1 nM, 16 h at 4 °C",bound to the GCGR
same,pEC50,[8]; [9],N.R
same,log τ,[8]; [10],N.R
same,pKA,[8]; [10],N.R
same,Emax,[8]; [11],N.R
des-His^1-[Glu^9]glucagon(1–29) amide,effect of GCGR antagonist on GLP-1 and liraglutide signaling through the GCGR,"[2]; cAMP, HEK-293 cells with GCGR",inhibited
